In patent US11161844B2, “Cyclic substituted imidazo[4,5-c]quinoline derivatives” (Pfizer Inc., priority 2017, dated 2021):

Tests used:
mutant G2019S LRRK2 = mutant G2019S LRRK2 (Homo sapiens (Human), UniProt Q5S007, G2019S); assay: LRRK2 kinase assay (Lantha Screen), mutant G2019S; type: biochemical; conditions: 100 nM LRRKtide, 1 mM ATP, 2 μg/mL enzyme; single determination unless otherwise indicated
Method: (§1) LRRK2 kinase activity was measured using Lantha Screen technology from Invitrogen. GST-tagged truncated LRRK2 from Invitrogen (Cat #PV4874) was incubated with a fluorescein-labeled peptide substrate based upon ezrin/radixin/moesin (ERM), also known as LRRKtide (Invitrogen cat #PR8976A), in the presence of a dose response of compound. Upon completion, the assay was stopped and detected with a terbium labeled anti-phospho-ERM antibody (Invitrogen, cat #PR8975A). The assay was carried out under the following protocol: The compound dose response was prepared by diluting compound to a top concentration of 0.3 mM in 100% DMSO and serial diluted by half-log in DMSO to give an 11 point curve, 100× final assay concentration. Using Echo acoustic dispensing, 60 nL of compound was transferred to a low volume Corning 384-well assay plate. 3 μL of a working solution of substrate (200 nM LRRKtide, 2 mM ATP) prepared in assay buffer (50 mM HEPES, pH 7.5, 3 mM MgCl2, with 2 mM DTT and 0.01% Brij35 added fresh) was added to the 60 nL compound assay plate. The kinase reaction was started with 3 μL of a working solution of LRRK2 enzyme at a concentration of 4 μg/mL. The final reaction concentrations were 100 nM LRRKtide, 1 mM ATP, 2 μg/mL LRRK2 enzyme and a compound dose response with a top dose of 3 μM. The reaction was allowed to progress at room temperature for 30 minutes and then stopped with the addition of 6 μL of detection buffer (20 mM Tris pH 7.6, 0.01% NP-40, 6 mM EDTA with 2 nM terbium labeled anti-phospho-ERM). After an incubation of 1 hour at room temperature, the plate was read on an Envision with an excitation wavelength of 340 nm and a reading emission at both 520 nm and 495 nm. The ratio of the 520 nm and 495 nm emission was used to analyze the data. Inhibition of mutant G2019S LRRK2 (Invitrogen cat #PV4881) was measured in the exact same method. All final concentrations of substrate ATP and enzyme were the same.

[1] = target: LRRK2, WT (GST-tagged truncated LRRK2) (Homo sapiens (Human), UniProt Q5S007); assay: LRRK2 kinase assay (Lantha Screen), wild type; type: biochemical; conditions: 100 nM LRRKtide, 1 mM ATP, 2 μg/mL enzyme; geometric mean of 2-4 determinations unless otherwise indicated
LRRK2, WT (GST-tagged truncated LRRK2), sequence (Q5S007 970-2527): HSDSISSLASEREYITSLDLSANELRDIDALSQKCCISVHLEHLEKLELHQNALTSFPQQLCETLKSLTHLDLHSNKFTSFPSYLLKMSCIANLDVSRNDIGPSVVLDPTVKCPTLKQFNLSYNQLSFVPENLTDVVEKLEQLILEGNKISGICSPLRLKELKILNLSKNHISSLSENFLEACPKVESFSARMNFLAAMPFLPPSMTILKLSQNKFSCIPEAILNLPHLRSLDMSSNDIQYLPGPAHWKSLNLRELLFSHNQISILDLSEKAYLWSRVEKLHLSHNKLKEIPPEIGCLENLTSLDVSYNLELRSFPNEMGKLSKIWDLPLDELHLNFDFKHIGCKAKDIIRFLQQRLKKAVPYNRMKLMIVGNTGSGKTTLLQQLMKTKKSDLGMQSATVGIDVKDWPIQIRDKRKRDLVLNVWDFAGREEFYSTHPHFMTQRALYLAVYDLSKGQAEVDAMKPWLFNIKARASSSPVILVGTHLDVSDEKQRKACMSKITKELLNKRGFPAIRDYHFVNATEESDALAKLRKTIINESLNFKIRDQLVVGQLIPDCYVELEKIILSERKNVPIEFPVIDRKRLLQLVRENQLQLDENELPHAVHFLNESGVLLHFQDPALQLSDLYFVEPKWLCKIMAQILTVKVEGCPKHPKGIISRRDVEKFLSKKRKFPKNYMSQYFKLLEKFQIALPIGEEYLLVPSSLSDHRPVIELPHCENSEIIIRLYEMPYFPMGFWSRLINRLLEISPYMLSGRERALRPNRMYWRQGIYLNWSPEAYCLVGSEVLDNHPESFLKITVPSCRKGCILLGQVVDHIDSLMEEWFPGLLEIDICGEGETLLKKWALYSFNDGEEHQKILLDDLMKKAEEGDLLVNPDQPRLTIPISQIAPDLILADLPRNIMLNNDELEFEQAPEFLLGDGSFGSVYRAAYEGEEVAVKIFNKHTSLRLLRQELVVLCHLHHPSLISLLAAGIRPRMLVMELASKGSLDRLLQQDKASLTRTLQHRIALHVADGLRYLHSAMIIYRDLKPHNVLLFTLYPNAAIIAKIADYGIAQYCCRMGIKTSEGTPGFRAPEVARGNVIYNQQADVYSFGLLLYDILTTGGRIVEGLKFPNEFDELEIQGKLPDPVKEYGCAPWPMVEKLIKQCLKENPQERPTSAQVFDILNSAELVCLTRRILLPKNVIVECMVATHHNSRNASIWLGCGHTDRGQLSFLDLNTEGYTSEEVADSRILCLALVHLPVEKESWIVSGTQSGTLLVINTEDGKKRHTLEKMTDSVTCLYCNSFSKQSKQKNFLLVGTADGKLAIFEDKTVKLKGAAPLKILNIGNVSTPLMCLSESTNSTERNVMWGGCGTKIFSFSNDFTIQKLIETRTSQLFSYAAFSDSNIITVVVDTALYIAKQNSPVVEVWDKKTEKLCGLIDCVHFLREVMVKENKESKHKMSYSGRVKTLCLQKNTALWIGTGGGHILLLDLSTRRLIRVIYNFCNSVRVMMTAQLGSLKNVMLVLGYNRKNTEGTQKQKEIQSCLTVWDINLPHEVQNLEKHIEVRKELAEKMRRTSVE
Method: as §1

mutant G2019S LRRK2, sequence (Q5S007 970-2527 G2019S): as the sequence (Q5S007 970-2527) above, with G1050S counted along it

| Structure (SMILES) | IC50 (mutant G2019S LRRK2) [nM] | IC50 [1] [nM] |
| --- | --- | --- |
| CN1CC(n2c(C3CCC(F)C3)nc3cnc4ccc(C#N)cc4c32)C(F)(F)C1 (centres unmarked) [Example 59, 1-(4,4-difluoro-1-methylpyrrolidin-3-yl)-2-(3-fluorocyclopentyl)-1H-imidazo[4,5-c]quinoline-8-carbonitrile] | 141 | 30.5 |
| CO[C@H]1C[C@@H](c2nc3cnc4ccc(Cl)cc4c3n2[C@@H]2CCO[C@H](C)C2)C1 [Example 6, 8-chloro-2-(cis-3-methoxycyclobutyl)-1-[(2R,4R)-2-methyltetrahydro-2H-pyran-4-yl]-1H-imidazo[4,5-c]quinoline] | 11.9 | 19.1 |
| CN1CC[C@@H](n2c(C3CCC(F)C3)nc3cnc4ccc(C#N)cc4c32)C1 (stereo partly drawn) [Example 33, 2-[cis-3-fluorocyclopentyl]-1-[(3R)-1-methylpyrrolidin-3-yl]-1H-imidazo[4,5-c]quinoline-8-carbonitrile] | 4.3 | 6.56 |
| C[C@@H]1C[C@H](n2c(C3CCC(F)C3)nc3cnc4ccc(C#N)cc4c32)CCO1 (single isomer, unassigned) [Example 13] | 3.84 | 6.29 |
